Active and inactive are the calls of the source. Where only a bound is given, the exact number is not on record here.

These results are taken from ChEMBL document CHEMBL1201862, “PubChem BioAssay data set” (2004).

Assay [1] has as its target DNA (cytosine-5)-methyltransferase 1 (Homo sapiens, UniProt P26358). The assay is described as follows: DNMT1 methyltransferase inhibitors, confirmation, biochemical, fluorescent molecular beacon (AID 602386). The assay is classed as functional.
Assay [2] concerns the target T1, Sentrin-specific protease 6 (Homo sapiens, UniProt Q9GZR1).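 Note: Luminescence-based dose-response confirmatory assay of SENP6 inhibition, following up an ultra-high-throughput screen.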
T1 sequence (Q9GZR1 whole entry): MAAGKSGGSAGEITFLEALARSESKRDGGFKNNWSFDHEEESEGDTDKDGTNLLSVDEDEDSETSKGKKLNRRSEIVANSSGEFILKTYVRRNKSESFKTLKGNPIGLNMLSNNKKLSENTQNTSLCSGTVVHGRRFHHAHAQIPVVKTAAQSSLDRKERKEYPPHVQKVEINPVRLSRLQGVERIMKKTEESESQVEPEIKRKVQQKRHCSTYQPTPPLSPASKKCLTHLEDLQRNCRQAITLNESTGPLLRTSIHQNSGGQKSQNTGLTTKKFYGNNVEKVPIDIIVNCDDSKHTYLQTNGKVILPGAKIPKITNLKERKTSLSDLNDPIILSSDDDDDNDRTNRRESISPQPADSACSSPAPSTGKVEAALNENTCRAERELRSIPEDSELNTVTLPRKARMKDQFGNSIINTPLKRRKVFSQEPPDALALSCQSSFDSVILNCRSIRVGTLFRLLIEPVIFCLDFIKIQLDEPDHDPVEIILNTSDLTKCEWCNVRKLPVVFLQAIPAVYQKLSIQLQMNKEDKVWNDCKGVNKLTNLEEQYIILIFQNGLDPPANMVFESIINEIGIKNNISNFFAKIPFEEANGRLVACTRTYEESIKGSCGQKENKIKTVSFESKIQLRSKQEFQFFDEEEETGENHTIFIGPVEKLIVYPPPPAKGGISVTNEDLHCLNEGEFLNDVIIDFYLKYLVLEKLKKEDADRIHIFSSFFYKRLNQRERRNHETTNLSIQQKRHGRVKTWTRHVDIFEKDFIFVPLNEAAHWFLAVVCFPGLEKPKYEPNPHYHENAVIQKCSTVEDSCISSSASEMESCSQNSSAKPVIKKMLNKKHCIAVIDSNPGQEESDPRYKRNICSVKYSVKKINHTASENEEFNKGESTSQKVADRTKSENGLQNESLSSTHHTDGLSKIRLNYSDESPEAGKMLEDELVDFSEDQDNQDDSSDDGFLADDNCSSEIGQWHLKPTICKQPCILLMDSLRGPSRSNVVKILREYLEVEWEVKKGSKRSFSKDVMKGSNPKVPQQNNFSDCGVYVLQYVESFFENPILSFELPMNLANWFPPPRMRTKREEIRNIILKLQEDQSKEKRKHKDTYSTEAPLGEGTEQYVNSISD
The assay is classed as functional.

Assay [3] concerns the target T2, Endoribonuclease toxin MazF (Escherichia coli K-12, UniProt P0AE70).
T2 sequence (P0AE70 whole entry): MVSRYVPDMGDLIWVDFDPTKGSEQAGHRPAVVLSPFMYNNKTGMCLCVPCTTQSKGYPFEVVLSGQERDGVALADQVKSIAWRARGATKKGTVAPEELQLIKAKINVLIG
Description: MazF toxin RNase activators, dose response, biochemical, fluorescence, single-stranded RNA substrate, uHTS hits (AID 588481). The assay is classed as functional.

Assay [4] has as its target T2, Endoribonuclease toxin MazF. Description: fluorescent RNA oligo signal without MazF, dose response, counter-screen for MazEF activator project, biochemical, fluorescence, single-stranded RNase substrate (AID 588502). The assay is classed as functional. For orientation: A counterscreen serves to expose hits that act by an unwanted route or on another target.
The target of assay [5] is Serine/threonine-protein phosphatase (Homo sapiens, UniProt Q9BPW0). Description: PP5 phosphatase inhibitors, dose response, biochemical, fluorescence (AID 2395).
Assay [6] concerns the target T3, Apoptotic protease-activating factor 1 (Homo sapiens, UniProt O14727).
T3 sequence (O14727 whole entry): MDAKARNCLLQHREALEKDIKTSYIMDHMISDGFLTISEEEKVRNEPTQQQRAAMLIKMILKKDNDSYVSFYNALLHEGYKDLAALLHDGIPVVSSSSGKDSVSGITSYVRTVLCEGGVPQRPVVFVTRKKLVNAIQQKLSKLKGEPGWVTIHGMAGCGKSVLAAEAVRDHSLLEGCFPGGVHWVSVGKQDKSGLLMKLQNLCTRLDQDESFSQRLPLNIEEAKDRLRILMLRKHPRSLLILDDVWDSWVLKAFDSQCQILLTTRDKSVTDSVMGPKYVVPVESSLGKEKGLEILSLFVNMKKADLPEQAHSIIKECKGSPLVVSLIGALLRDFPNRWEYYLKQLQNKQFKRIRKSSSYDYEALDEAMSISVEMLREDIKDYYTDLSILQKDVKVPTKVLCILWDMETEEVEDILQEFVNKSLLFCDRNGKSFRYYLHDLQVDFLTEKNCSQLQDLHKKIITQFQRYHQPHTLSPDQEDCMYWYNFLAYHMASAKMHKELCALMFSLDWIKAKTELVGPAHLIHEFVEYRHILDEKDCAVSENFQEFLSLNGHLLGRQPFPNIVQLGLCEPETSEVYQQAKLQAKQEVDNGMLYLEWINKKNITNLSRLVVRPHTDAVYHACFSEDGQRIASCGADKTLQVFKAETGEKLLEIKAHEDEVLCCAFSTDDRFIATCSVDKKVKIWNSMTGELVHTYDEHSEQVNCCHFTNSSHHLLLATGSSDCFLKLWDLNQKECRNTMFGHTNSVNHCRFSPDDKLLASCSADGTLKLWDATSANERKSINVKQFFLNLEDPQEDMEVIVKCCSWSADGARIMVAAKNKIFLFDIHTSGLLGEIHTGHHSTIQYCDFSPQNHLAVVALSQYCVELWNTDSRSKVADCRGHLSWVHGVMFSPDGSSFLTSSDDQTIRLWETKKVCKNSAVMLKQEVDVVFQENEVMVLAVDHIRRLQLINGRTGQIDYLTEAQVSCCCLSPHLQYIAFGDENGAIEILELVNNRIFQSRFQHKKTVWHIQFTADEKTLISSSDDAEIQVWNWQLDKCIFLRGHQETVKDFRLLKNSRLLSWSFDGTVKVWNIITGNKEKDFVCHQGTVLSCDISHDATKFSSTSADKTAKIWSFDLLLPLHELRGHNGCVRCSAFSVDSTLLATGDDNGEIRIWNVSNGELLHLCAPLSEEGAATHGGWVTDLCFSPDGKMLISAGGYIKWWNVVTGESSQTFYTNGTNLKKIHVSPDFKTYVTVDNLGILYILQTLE
The assay is classed as functional.

A short description of assay [7]: Artemis endonuclease inhibitor potency, dose response, biochemical, fluorescence intensity (AID 720701).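 Note: Artemis endonuclease enzyme.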 The assay is classed as functional.

DNA (cytosine-5)-methyltransferase 1, sequence (P26358 whole entry): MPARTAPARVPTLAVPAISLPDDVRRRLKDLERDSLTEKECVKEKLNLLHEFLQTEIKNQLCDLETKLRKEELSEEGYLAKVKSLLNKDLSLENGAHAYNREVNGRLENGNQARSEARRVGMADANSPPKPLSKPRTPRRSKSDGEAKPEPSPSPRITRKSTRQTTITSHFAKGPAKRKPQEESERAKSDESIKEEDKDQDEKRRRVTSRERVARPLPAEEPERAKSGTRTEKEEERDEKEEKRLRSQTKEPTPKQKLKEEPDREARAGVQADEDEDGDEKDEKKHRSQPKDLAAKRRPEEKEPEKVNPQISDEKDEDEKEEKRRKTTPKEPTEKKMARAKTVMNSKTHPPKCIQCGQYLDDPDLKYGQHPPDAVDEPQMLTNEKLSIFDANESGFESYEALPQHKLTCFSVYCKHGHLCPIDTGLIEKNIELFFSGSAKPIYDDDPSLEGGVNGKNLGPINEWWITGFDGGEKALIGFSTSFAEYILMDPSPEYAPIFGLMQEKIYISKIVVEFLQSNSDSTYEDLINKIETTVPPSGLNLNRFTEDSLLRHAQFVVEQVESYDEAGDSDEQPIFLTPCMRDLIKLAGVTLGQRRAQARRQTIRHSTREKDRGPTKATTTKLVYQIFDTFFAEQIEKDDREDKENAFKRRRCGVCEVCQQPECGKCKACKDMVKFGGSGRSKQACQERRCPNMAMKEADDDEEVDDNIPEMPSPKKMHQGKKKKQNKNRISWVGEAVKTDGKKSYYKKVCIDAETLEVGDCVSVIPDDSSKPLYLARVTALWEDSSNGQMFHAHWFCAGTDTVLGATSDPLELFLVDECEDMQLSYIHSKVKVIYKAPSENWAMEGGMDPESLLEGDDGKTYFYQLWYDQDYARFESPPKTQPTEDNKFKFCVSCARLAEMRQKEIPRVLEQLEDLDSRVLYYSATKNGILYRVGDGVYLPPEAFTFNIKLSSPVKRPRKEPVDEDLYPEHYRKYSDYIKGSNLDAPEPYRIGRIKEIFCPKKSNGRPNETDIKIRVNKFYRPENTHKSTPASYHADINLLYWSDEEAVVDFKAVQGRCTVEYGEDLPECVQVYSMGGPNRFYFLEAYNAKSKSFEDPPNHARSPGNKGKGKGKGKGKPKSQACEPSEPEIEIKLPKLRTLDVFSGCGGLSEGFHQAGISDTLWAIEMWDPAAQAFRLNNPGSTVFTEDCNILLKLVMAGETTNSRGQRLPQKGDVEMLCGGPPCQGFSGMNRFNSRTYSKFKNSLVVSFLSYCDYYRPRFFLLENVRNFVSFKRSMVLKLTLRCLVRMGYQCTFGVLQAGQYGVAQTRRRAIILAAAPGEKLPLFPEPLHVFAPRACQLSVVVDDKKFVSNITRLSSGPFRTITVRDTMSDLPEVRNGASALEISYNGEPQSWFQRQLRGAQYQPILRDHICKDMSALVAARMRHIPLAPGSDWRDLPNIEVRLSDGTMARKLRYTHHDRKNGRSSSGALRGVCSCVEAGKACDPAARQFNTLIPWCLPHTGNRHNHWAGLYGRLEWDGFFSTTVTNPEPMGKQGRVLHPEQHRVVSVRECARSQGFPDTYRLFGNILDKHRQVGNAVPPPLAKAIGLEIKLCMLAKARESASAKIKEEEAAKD
Serine/threonine-protein phosphatase, sequence (Q9BPW0 whole entry): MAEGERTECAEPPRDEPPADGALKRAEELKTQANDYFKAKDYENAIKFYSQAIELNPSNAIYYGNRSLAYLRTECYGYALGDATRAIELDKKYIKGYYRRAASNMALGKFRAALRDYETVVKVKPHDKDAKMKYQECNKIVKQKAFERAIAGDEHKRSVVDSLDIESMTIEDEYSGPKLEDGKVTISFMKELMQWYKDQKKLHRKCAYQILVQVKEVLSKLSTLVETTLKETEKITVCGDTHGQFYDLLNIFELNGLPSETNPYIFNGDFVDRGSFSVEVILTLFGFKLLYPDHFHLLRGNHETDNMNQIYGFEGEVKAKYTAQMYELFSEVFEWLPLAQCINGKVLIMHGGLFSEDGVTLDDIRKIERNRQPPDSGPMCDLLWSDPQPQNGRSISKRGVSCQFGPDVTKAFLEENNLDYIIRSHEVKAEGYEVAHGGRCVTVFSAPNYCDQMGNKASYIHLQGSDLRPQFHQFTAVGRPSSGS

Take `Oc1[nH]c2ccccc2c1N=Nc1ccc(F)cc1`: the half-maximal inhibitory concentration (IC50) (as a rule, the concentration that gives 50% inhibition) in assay [1] was 19.3 µM (active); in assay [2], 2.03 µM (active). Besides, the EC50 in assay [3] and in assay [4] was > 99 µM (inactive) each time.
Regarding `O=C1C(Nc2ccccc2)=C(N2CCCCC2)C(=O)c2ccccc21`, the IC50 in assay [5] was > 67 µM (not active); in assay [6], 4.78 µM (active); in assay [7], 18.9 µM (active).
